According to ChEMBL document CHEMBL4507300 (2021):

Experiments:
[1] = molecular target: G protein-coupled receptor kinase 4 (Homo sapiens) (UniProt P32298); settings: Compound concentration 1000.0 nM
[2] = molecular target: Tyrosine-protein kinase HCK (Homo sapiens) (UniProt P08631); settings: Compound concentration 1000.0 nM
[3] = molecular target: NUAK family SNF1-like kinase 2 (Homo sapiens) (UniProt Q9H093); settings: Compound concentration 1000.0 nM
[4] = molecular target: Cyclin-dependent kinase 2 homolog (Plasmodium falciparum (isolate 3D7)) (UniProt P61075); settings: Compound concentration 1000.0 nM
Sequence of Cyclin-dependent kinase 2 homolog (Plasmodium falciparum (isolate 3D7)) (P61075 whole entry): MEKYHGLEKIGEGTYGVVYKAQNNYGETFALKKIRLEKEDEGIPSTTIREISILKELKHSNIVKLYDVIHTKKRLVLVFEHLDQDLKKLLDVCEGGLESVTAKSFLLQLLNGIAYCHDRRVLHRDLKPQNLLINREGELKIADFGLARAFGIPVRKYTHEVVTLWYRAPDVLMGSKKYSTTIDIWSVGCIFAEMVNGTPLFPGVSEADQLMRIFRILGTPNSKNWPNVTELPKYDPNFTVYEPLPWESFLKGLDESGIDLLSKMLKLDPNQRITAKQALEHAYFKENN

[5] = molecular target: Serine/threonine-protein kinase Sgk1 (Homo sapiens) (UniProt O00141); settings: Compound concentration 1000.0 nM
[6] = molecular target: Microtubule-associated serine/threonine-protein kinase 1 (Homo sapiens) (UniProt Q9Y2H9); settings: Compound concentration 1000.0 nM
[7] = molecular target: 5-hydroxytryptamine receptor 1D (Homo sapiens) (UniProt P28221); settings: Compound concentration 10.0 uM
[8] = molecular target: Mitogen-activated protein kinase 6 (Homo sapiens) (UniProt Q16659); settings: Compound concentration 1000.0 nM
[9] = molecular target: Serine/threonine-protein kinase WNK3 (Homo sapiens) (UniProt Q9BYP7); settings: Compound concentration 1000.0 nM
Sequence of Serine/threonine-protein kinase WNK3 (Homo sapiens) (Q9BYP7 whole entry, the tested form may be a part): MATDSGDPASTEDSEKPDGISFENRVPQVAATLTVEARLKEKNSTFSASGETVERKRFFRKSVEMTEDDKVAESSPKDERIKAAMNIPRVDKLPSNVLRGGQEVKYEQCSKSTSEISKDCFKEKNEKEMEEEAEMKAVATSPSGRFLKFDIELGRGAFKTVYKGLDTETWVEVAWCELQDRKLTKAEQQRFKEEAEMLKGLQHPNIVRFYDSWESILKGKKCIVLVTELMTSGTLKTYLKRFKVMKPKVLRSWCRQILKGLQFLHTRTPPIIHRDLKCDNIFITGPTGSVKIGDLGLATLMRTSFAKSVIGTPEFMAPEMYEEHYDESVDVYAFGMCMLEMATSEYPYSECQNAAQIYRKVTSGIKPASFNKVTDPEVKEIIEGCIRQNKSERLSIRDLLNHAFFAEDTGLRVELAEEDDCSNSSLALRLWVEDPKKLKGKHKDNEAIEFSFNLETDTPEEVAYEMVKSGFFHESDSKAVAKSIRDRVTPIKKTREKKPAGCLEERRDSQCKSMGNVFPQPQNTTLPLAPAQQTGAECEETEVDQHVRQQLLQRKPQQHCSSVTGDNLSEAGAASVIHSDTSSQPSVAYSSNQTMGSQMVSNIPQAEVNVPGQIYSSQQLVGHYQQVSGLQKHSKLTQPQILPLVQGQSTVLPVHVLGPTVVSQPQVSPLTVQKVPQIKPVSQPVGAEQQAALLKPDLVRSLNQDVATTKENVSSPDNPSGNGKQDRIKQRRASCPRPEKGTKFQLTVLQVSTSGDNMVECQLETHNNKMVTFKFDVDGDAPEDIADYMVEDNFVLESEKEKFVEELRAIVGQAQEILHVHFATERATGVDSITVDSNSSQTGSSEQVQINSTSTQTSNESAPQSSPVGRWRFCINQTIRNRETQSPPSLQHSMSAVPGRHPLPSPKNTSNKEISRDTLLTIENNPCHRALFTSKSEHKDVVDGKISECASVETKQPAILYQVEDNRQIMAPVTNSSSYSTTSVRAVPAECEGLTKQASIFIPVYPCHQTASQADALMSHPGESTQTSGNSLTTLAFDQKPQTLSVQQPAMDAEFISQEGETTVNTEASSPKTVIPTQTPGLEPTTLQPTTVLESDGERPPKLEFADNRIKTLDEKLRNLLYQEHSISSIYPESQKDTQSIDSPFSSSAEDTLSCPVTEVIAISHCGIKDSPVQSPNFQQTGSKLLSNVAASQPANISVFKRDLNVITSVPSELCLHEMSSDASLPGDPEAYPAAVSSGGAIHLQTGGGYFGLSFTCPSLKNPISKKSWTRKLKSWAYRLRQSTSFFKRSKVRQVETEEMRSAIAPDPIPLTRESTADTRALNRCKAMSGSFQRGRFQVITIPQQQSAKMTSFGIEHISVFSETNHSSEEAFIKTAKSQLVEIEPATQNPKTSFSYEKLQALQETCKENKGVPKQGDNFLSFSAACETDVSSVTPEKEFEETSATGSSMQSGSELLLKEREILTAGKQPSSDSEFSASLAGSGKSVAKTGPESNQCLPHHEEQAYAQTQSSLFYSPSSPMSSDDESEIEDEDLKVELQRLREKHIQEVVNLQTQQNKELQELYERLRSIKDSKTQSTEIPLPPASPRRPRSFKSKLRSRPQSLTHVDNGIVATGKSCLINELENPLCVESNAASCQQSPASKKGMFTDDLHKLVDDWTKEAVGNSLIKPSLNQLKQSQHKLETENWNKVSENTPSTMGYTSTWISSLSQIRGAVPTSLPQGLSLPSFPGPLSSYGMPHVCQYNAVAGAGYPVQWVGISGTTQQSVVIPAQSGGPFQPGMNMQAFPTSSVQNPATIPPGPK

[10] = molecular target: Discoidin domain-containing receptor 2 (Homo sapiens) (UniProt Q16832); settings: Compound concentration 1000.0 nM
Sequence of Discoidin domain-containing receptor 2 (Homo sapiens) (Q16832 whole entry, the tested form may be a part): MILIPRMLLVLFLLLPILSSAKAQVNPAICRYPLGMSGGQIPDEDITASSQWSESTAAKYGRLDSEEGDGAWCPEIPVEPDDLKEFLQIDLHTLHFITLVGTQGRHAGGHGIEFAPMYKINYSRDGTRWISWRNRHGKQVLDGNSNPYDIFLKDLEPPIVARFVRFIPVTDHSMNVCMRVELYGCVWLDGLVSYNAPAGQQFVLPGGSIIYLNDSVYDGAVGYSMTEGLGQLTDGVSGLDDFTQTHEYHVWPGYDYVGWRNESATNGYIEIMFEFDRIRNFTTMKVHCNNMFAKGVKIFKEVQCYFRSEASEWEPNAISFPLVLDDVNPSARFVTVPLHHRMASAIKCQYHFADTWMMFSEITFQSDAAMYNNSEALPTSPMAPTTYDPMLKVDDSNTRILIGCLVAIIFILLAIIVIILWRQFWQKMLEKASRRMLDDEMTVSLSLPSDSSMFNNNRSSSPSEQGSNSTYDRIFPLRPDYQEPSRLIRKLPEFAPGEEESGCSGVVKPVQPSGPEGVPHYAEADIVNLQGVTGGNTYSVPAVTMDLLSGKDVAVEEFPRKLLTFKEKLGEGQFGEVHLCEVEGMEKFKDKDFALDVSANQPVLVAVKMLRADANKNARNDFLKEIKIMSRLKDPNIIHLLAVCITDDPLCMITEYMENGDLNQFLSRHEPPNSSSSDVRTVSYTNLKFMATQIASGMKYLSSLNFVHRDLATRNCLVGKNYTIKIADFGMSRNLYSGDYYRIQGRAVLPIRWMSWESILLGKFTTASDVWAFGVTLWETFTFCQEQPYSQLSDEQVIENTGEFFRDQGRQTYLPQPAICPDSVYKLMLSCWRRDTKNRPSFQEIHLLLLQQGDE

[11] = molecular target: Mitogen-activated protein kinase kinase kinase 7 (Homo sapiens) (UniProt O43318); settings: Compound concentration 1000.0 nM
[12] = molecular target: Rhodopsin kinase GRK1 (Homo sapiens) (UniProt Q15835); settings: Compound concentration 1000.0 nM
[13] = tested on: Tyrosine-protein kinase ABL1 (Homo sapiens), P00519 [T315I]; settings: Compound concentration 1000.0 nM
[14] = tested on: Epidermal growth factor receptor (Homo sapiens), P00533 [G719C]; settings: Compound concentration 1000.0 nM
[15] = molecular target: Insulin-like growth factor 1 receptor (Homo sapiens) (UniProt P08069); settings: Compound concentration 1000.0 nM
[16] = tested on: Serine/threonine-protein kinase B-raf (Homo sapiens), P15056 [V600E]; settings: Compound concentration 1000.0 nM
[17] = tested on: Receptor-type tyrosine-protein kinase FLT3 (Homo sapiens), P36888 [D835Y]; settings: Compound concentration 1000.0 nM
[18] = molecular target: Serine/threonine-protein kinase Nek1 (Homo sapiens) (UniProt Q96PY6); settings: Compound concentration 1000.0 nM
[19] = molecular target: Serine/threonine-protein kinase pim-1 (Homo sapiens) (UniProt P11309); settings: Compound concentration 1000.0 nM
[20] = molecular target: Tyrosine-protein kinase SYK (Homo sapiens) (UniProt P43405); settings: Compound concentration 1000.0 nM
[21] = molecular target: Mitogen-activated protein kinase 3 (Homo sapiens) (UniProt P27361); settings: Compound concentration 1000.0 nM
[22] = molecular target: Serine/threonine-protein kinase PLK3 (Homo sapiens) (UniProt Q9H4B4); settings: Compound concentration 1000.0 nM
[23] = molecular target: Casein kinase I isoform alpha-like (Homo sapiens) (UniProt Q8N752); settings: Compound concentration 1000.0 nM
Sequence of Casein kinase I isoform alpha-like (Homo sapiens) (Q8N752 whole entry, canonical isoform): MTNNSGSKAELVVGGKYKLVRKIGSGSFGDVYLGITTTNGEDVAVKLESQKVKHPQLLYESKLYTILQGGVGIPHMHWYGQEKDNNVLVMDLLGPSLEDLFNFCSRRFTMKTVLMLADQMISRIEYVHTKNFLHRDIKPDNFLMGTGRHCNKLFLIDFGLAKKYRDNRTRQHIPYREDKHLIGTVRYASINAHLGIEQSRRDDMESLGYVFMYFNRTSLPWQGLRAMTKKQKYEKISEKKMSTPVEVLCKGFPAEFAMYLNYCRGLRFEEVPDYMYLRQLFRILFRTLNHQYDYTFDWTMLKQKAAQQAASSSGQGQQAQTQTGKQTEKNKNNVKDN

[24] = molecular target: Mitogen-activated protein kinase kinase kinase kinase 4 (Homo sapiens) (UniProt O95819); settings: Compound concentration 1000.0 nM
[25] = molecular target: Tyrosine-protein kinase Fes/Fps (Homo sapiens) (UniProt P07332); settings: Compound concentration 1000.0 nM
[26] = molecular target: Histamine H2 receptor (Homo sapiens) (UniProt P25021); settings: Compound concentration 10.0 uM
[27] = molecular target: Serine/threonine-protein kinase STK11 (Homo sapiens) (UniProt Q15831); settings: Compound concentration 1000.0 nM
[28] = molecular target: Interleukin-1 receptor-associated kinase 1 (Homo sapiens) (UniProt P51617); settings: Compound concentration 1000.0 nM
[29] = molecular target: MAP/microtubule affinity-regulating kinase 4 (Homo sapiens) (UniProt Q96L34); settings: Compound concentration 1000.0 nM
Sequence of MAP/microtubule affinity-regulating kinase 4 (Homo sapiens) (Q96L34 whole entry): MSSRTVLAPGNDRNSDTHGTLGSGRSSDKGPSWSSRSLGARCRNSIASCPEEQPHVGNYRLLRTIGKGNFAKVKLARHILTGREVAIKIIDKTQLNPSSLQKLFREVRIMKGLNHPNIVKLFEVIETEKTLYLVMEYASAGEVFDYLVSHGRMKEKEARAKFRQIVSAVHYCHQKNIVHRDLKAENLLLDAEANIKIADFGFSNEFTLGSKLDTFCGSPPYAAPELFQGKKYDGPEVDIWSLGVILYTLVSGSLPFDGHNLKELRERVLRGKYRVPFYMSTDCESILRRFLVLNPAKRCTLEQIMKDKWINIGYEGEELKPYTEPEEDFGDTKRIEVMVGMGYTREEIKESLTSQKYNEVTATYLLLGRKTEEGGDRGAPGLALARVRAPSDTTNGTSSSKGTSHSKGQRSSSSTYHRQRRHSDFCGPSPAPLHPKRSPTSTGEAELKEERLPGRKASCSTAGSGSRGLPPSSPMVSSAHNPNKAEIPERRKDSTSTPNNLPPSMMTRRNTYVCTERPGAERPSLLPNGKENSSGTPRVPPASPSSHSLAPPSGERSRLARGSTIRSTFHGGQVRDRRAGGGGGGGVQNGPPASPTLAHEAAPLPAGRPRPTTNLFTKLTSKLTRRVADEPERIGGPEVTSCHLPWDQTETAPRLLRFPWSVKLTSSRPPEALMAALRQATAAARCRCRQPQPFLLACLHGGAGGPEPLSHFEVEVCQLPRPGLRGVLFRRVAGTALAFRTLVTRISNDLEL

[30] = molecular target: Delta-type opioid receptor (Homo sapiens) (UniProt P41143); settings: Compound concentration 10.0 uM
[31] = molecular target: Phosphorylase b kinase gamma catalytic chain, skeletal muscle/heart isoform (Homo sapiens) (UniProt Q16816); settings: Compound concentration 1000.0 nM
[32] = molecular target: cGMP-dependent protein kinase 2 (Homo sapiens) (UniProt Q13237); settings: Compound concentration 1000.0 nM
[33] = tested on: Epidermal growth factor receptor (Homo sapiens), P00533 [UNDEFINED MUTATION]; settings: Compound concentration 1000.0 nM
[34] = molecular target: Protein kinase C theta type (Homo sapiens) (UniProt Q04759); settings: Compound concentration 1000.0 nM
[35] = molecular target: Dual specificity protein kinase CLK2 (Homo sapiens) (UniProt P49760); settings: Compound concentration 1000.0 nM
[36] = molecular target: TGF-beta receptor type-1 (Homo sapiens) (UniProt P36897); settings: Compound concentration 1000.0 nM
[37] = molecular target: Histamine H3 receptor (Homo sapiens) (UniProt Q9Y5N1); settings: Compound concentration 10.0 uM
[38] = molecular target: Serine/threonine-protein kinase MRCK beta (Homo sapiens) (UniProt Q9Y5S2); settings: Compound concentration 1000.0 nM
[39] = molecular target: Mitogen-activated protein kinase kinase kinase 20 (Homo sapiens) (UniProt Q9NYL2); settings: Compound concentration 1000.0 nM
Sequence of Mitogen-activated protein kinase kinase kinase 20 (Homo sapiens) (Q9NYL2 2-800 limits assumed): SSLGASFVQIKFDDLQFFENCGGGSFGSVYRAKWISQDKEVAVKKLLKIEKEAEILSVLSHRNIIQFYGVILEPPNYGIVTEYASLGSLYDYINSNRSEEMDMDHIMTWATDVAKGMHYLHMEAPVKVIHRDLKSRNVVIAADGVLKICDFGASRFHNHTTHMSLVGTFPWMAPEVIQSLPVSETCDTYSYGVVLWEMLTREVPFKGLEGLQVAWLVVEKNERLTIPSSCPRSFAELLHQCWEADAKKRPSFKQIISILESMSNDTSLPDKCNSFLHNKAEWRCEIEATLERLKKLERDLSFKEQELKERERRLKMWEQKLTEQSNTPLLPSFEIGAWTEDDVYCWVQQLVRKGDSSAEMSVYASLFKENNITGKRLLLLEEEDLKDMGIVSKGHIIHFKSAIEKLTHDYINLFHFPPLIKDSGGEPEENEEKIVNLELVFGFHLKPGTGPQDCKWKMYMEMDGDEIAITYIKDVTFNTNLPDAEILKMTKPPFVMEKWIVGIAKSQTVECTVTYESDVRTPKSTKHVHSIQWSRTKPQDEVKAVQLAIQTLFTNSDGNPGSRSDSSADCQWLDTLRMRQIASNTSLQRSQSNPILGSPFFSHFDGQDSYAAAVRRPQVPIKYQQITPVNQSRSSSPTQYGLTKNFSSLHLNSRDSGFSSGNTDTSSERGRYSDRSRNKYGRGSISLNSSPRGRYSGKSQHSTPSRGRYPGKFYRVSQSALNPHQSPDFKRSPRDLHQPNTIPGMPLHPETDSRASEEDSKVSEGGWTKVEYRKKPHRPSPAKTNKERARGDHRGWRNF

[40] = molecular target: Serine/threonine-protein kinase N2 (Homo sapiens) (UniProt Q16513); settings: Compound concentration 1000.0 nM
[41] = molecular target: 5'-AMP-activated protein kinase catalytic subunit alpha-1 (Homo sapiens) (UniProt Q13131); settings: Compound concentration 1000.0 nM
[42] = molecular target: Proto-oncogene tyrosine-protein kinase receptor Ret (Homo sapiens) (UniProt P07949); settings: Compound concentration 1000.0 nM
[43] = molecular target: AP2-associated protein kinase 1 (Homo sapiens) (UniProt Q2M2I8); settings: Compound concentration 1000.0 nM
[44] = molecular target: Fibroblast growth factor receptor 2 (Homo sapiens) (UniProt P21802); settings: Compound concentration 1000.0 nM
[45] = molecular target: Ribosomal protein S6 kinase alpha-6 (Homo sapiens) (UniProt Q9UK32); settings: Compound concentration 1000.0 nM

COc1cccc(CNC(=O)c2nc3scc(COCc4ccc(C(=O)O)cc4)c3c(=O)[nH]2)c1 [T-26c]
inactive: residual activity [1] 72.1% | residual activity [2] 79.7% | residual activity [3] 76.4% | residual activity [4] 72.5% | residual activity [5] 93.4% | residual activity [6] 84.4% | inhibition [7] -1.39% | residual activity [8] 99.9% | residual activity [9] 83.6% | residual activity [10] 98.9% | residual activity [11] 60.2% | residual activity [12] 57.5% | residual activity [13] 77.5% | residual activity [14] 91.4% | residual activity [15] 100% | residual activity [16] 79.8% | residual activity [17] 94.3% | residual activity [18] 100% | residual activity [19] 100% | residual activity [20] 100% | residual activity [21] 100% | residual activity [22] 65.3% | residual activity [23] 94.1% | residual activity [24] 92.3% | residual activity [25] 94.5% | inhibition [26] 28.4% | residual activity [27] 97.2% | residual activity [28] 75.6% | residual activity [29] 89.2% | inhibition [30] -5.04% | residual activity [31] 100% | residual activity [32] 100% | residual activity [33] 98.7% | residual activity [34] 100% | residual activity [35] 92.4% | residual activity [36] 83.2% | inhibition [37] -9.59% | residual activity [38] 99.5% | residual activity [39] 85.5% | residual activity [40] 98% | residual activity [41] 70.3% | residual activity [42] 72.3% | residual activity [43] 100% | residual activity [44] 100% | residual activity [45] 100%
